Measured values as given in EP0105658A1, “Beta-lactam compounds” (BEECHAM GROUP PLC, priority 1982, dated 1984).
In brackets after ≈: the same amount, converted by molar mass. Like-named read-outs stand apart in the source and are kept apart here.

Key:
S aureus Russell = test: MIC, antibacterial activity (microtitre using nutrient broth); type: cell-based; settings: * racemic, not corrected for presence of inactive enantiomer
Pseudomonas aeruginosa A = test: as above; type: cell-based; settings: for MIC: Pseudomonas aeruginosa
[1] = Stability in kidney preparations (human); type: in vitro ADME
R + E coli = test: MIC, antibacterial activity (microtitre using nutrient broth); type: cell-based; settings: * racemic, not corrected for presence of inactive enantiomer
[2] = Stability in kidney preparations (pig); type: in vitro ADME; settings: 100 mg/ml solubilised in 5% Triton X-100, * racemic compounds: figures based on stability of bio-active enantiomer
S typhimurium CT10 = test: MIC, antibacterial activity (microtitre using nutrient broth); type: cell-based; settings: * racemic, not corrected for presence of inactive enantiomer
E. coli JT39 = test: MIC against E. coli JT39; type: cell-based; design: unit not given here
[3] = Microtitre using Nutrient broth, * racemic, not corrected for presence of inactive enantiomer, read-out: MIC P aeruginosa A
[4] = 15% solubilised in 5% Triton X-100, 60 minutes, * racemic compounds: figures based on stability of bio-active enantiomer

Structure (SMILES) | MIC (S aureus Russell) [µg/mL] | MIC (Pseudomonas aeruginosa A; [3]) [µg/mL] | % left after 60 minutes Human Kidney Sonicate [1, 4] [%] | MIC (R + E coli) [µg/mL] | % left after 60 minutes Pig Kidney Acetone Powder [2] [%] | MIC (S typhimurium CT10) [µg/mL] | MIC S aureus Russell (S aureus Russell) [µg/mL] | MIC P aeruginosa A (Pseudomonas aeruginosa A; Microtitre using Nutrient broth, * racemic, not corrected for presence of inactive enantiomer) [µg/mL] | MIC R + E coli (R + E coli) [µg/mL] | MIC S typhimurium CT10 (S typhimurium CT10) [µg/mL] | % left after 60 minutes Human Kidney Sonicate ([1]; human, 60 min) [%] | MIC (Pseudomonas aeruginosa A; read-out: MIC against Pseudomonas aeruginosa A) [µg/mL] | MIC against E. coli JT39 (E. coli JT39)
C/C(=C\CN)SC1=C(C(=O)O)N2C(=O)[C@@H]([C@H](C)O)[C@H]2C1 [Example 16, (5R, 6R)-3-[(E)-3-amino-1-methylprop-1-enylthio]-6-[(S)-1-hydroxyethyl]-7-oxo-1-azabicyclo[3.2.0]hept-2-ene-2-carboxylate] | < 0.1 | 25 | 13 | 1.6 | 38 | 0.2 |  |  |  |  |  |  | 
C/C(=C/CN)SC1=C(C(=O)O)N2C(=O)[C@@H]([C@H](C)O)[C@H]2C1 [Example 8] | < 0.1 | 25 | 51 | 1.6 | 78 | < 0.1 |  |  |  |  |  |  | 
C[C@@H](O)[C@H]1C(=O)N2C(C(=O)O)=C(S/C=C\CN)C[C@H]12 [Example 2, (5R,6S)-3-[(Z)-3-aminoprop-1-enylthio]-6-[(R)-1-hydroxyethyl]-7-oxo-1-azabicy,clo[3.2.0]hept-2-ene-2-carboxylic acid] |  |  |  |  |  |  | 0.08 | 25 | 0.3 | 0.6 |  |  | 
C[C@H](O)[C@@H]1C(=O)N2C(C(=O)O)=C(S/C=C\CN)C[C@H]12 [Example 1] |  |  | 40 |  | 39 |  |  |  |  |  |  | 6.2 (≈ 21.8 µM) | 0.4
C[C@@H](O)[C@H]1C(=O)N2C(C(=O)O)=C(S/C=C/CN)C[C@H]12 [Example 12, (5R, 6S)-3-[(E)-3-aminoprop-1-enylthio]-6-[(R)-1-hydroxyethyl]-7-oxo-1-azabicyclo[3.2.0]hept-2-ene-2-carboxylic acid] | < 0.1 | 12.5 |  |  |  | 0.2 |  |  |  |  | 5 |  | 

Second part, led by results:

MIC (S aureus Russell) [µg/mL] | MIC (Pseudomonas aeruginosa A; [3]) [µg/mL] | % left after 60 minutes Human Kidney Sonicate [1, 4] [%] | MIC (R + E coli) [µg/mL] | % left after 60 minutes Pig Kidney Acetone Powder [2] [%] | MIC (S typhimurium CT10) [µg/mL] | MIC S aureus Russell (S aureus Russell) [µg/mL] | MIC P aeruginosa A (Pseudomonas aeruginosa A; Microtitre using Nutrient broth, * racemic, not corrected for presence of inactive enantiomer) [µg/mL] | MIC R + E coli (R + E coli) [µg/mL] | MIC S typhimurium CT10 (S typhimurium CT10) [µg/mL] | Structure (SMILES) | % left after 60 minutes Human Kidney Sonicate ([1]; human, 60 min) [%] | MIC (Pseudomonas aeruginosa A; read-out: MIC against Pseudomonas aeruginosa A) [µg/mL] | MIC against E. coli JT39 (E. coli JT39)
< 0.1 | 25 | 23 | 0.4 | 36 | 0.4 |  |  |  |  | C/C(=C\CN)SC1=C(C(=O)O)N2C(=O)[C@H]([C@@H](C)O)[C@H]2C1 (racemic) [Example 14, (5RS, 6SR)-3-[(E)-3-amino-1-methylprop-1-enylthio]-6-[(RS)-1-hydroxyethyl]-7-oxo=1-azabicyclo[3.2.0]hept-2-ene-2-carboxylic acid] |  |  | 
< 0.1 | 12.5 | 7 | < 0.1 | 6 | 0.4 |  |  |  |  | C[C@H](O)[C@@H]1C(=O)N2C(C(=O)O)=C(S/C=C/CN)C[C@H]12 [Example 11, (5R,6R)-3-[(E)-3-aminoprop-1-enylthio]-6-[(S)-1-hydroxyethyl]-7-oxo-1-azabicyelo[3.2.0]hept-2-ene-2-carboxylic acid] |  |  | 
0.1 | 25 |  |  |  | 0.2 |  |  |  |  | C/C(=C/CN)SC1=C(C(=O)O)N2C(=O)[C@H]([C@@H](C)O)[C@H]2C1 [Example 10, (5R,6S)-3-[(Z)-3-amino-1-methylprop-1-enylthio]-6-[(R)-1-hydroxyethyl]-7-oxo-1-azabicyclo[3.2.0]hept-2-ene-2-carboxylic acid] | 56 |  | 
0.08 | 25 | 39 | 0.4 | 40 | 0.6 |  |  |  |  | C[C@@H](O)[C@H]1C(=O)N2C(C(=O)O)=C(S/C=C\CN)C[C@H]12 (racemic) [Example 13, (5RS, 6SR)-3-[(Z)-3-Aminoprop-1-enylthio]-b-[(1RS)-1-hydroxyethyl]-7-oxo-1-azabicyclo[3.2.0]hept-2-ene-2-carboxylic acid] |  |  | 
